Results reported in US7128897B2, “Aerosolized anti-infectives, anti-inflammatories, and decongestants for the treatment of sinusitis” (Naryx Pharma, Inc., priority 1999, dated 2006).

What was measured:
[1] = test system: sinus infection; experiment: Nebulized antibiotic treatment of sinusitis patients (case reports, Patients A, B, C); format: in vivo, human; settings: for time to "dumping" of green, purulent nasal discharge: nebulized three times daily
Description: Thereafter, a preparation of tobramycin 80 mg/ml was administered using 3 ml in a Pari LC Star® nebulizer cup with adult mask attached and a Pari Proneb® compressor. The medication was nebulized three (3) times daily. After four days of therapy, the patient experienced a “dumping” of green, purulent nasal discharge. The therapy was continued for a total of seven (7) days. […] Another seven (7) day regimen of nebulized tobramycin was given to the patient.
A preparation of cefuroxime 285 mg in 2.5 ml sterile water for injection was administered three (3) times daily using a Pari LC Star® nebulizer cup with adult mask attached and a Pari Proneb® compressor. […] After one day of therapy, a Pari Turbo® compressor was substituted for the Pari Proneb® compressor. The patient experienced a “dumping” of green, purulent nasal discharge after (3) days of therapy.
After the seven (7) days of treatment with nebulized cefuroxime using the Pari Turbo® compressor and the Pari LC Star® nebulizer cup with mask, the patient has remained free of sinus infections for nine (9) months. They have continued to experience problems with their allergies, and while in the past these allergies triggered sinus infections, this time no such infection has recurred.
A person had been experiencing sinus infections off and on during their adult life. They were treated with cefuroxime 285 mg in 2.5 ml of sterile water for injection three (3) times daily using a Pari LC Star® nebulizer cup with adult mask attached and a Pari Turbo® compressor. The patient experienced a “dumping” of green, purulent nasal discharge after eight (8) treatments. The therapy was continued for a total of seven (7) days. No other antibiotics were given. This patient has been free from sinus infections for six (6) months.
They were treated with cefuroxime 285 mg in 2.5 ml of sterile water for injection three (3) times daily using a Pari LC Star® nebulizer cup with adult mask attached and a Pari Turbo® compressor. The patient experienced a “dumping” of green, purulent nasal discharge after eight (8) treatments. The therapy was continued form a total of seven (7) days. No other antibiotics were given. This patient has been free from sinus infections for six (6) months.

[2] = test system: paranasal sinusitis; settings: 4 ml of 3% FOM solution; ultrasonic-type nebulizer compared with jet-type; cited from earlier work
[3] = test system: sinusitis; format: in vivo, human; settings: for efficacy of nose drop: nose drop (tobramycin 80 mg/ml; Mupirocin calcium 2%)
Description: A person had been suffering from sinusitis for most of their adult life. These sinusitis episodes seemed to be triggered by allergies. They historically had three-four (3–4) episodes of sinusitis each year, which were treated with oral antibiotics for four-eight (4–8) weeks per episode. These oral antibiotic regimens produced yeast infections, which were treated with Diflucan® (fluconazole). Relief from the headaches, malaise, facial pressure and pain, yellow-green nasal discharge, coughing and fever took up to six weeks and were treated with narcotic and non narcotic analgesics, decongestants, decongestant nasal sprays, cough suppressants, and nasal rinses. Their allergies were treated with antihistamines and anti-inflammatory agents. In an effort to reduce the duration of their sinusitis episodes, a nose drop of tobramycin 80 mg/ml was administered. […] The medication was irritating; and in order to administer the drops and try to get them into the sinus cavity, the patient had to hold their head back. This caused intolerable pain resulting in the discontinuation of the therapy. A nose drop of Bactoban® (Mupirocin calcium 2%) was tried. […] In order to eliminate the pain caused by holding their head back when administering nose drops, a nose drop of tobramycin was administered after the patient had been on oral antibiotics for a period of time.

[4] = test system: clinical isolates from sinusitis patients; settings: one percent (1%) solution used with a nebulizer; cited from earlier work
[5] = test system: refractory sinusitis; settings: large particle saline aerosol therapy with tobramycin added; cited from earlier work
[6] = Patient A, second 7 day regimen of nebulized tobramycin

CO/N=C(\C(=O)N[C@@H]1C(=O)N2C(C(=O)O)=C(COC(N)=O)CS[C@H]12)c1ccco1 [cefuroxime, Cefuroxime]
adverse event during nebulized therapy ([1]; Patient A, 285 mg in 2.5 ml nebulized three times daily, 7 days): contracted a yeast infection
time free of sinus infections after treatment ([1]; Patient A, 285 mg in 2.5 ml nebulized three times daily, 7 days, Pari Turbo compressor): 9 months
time to "dumping" of green, purulent nasal discharge ([1]; Patient A): 3 days
number of treatments until "dumping" of green, purulent nasal discharge ([1]; Patient B, 285 mg in 2.5 ml nebulized three times daily): 8 treatments
time free from sinus infections after treatment ([1]; Patient B, 285 mg in 2.5 ml nebulized three times daily, 7 days): 6 months
number of treatments until "dumping" of green, purulent nasal discharge ([1]; Patient C, 285 mg in 2.5 ml nebulized three times daily): 8 treatments
time free from sinus infections after treatment ([1]; Patient C, 285 mg in 2.5 ml nebulized three times daily, 7 days): 6 months

C[C@@H]1O[C@@H]1P(=O)(O)O [FOM, fosfomycin]
delivery to maxillary sinus surface, ultrasonic-type vs jet-type nebulizer [2]: higher concentration of FOM to the maxillary sinus surface

C/C(=C\C(=O)OCCCCCCCCC(=O)[O-])C[C@@H]1OC[C@H](C[C@@H]2O[C@H]2[C@@H](C)[C@H](C)O)[C@@H](O)[C@H]1O.C/C(=C\C(=O)OCCCCCCCCC(=O)[O-])C[C@@H]1OC[C@H](C[C@@H]2O[C@H]2[C@@H](C)[C@H](C)O)[C@@H](O)[C@H]1O.O.O.[Ca+2] [Bactoban, Mupirocin calcium]
efficacy of nose drop ([3]; Patient A): not efficacious

CO/N=C(\C(=O)N[C@@H]1C(=O)N2C(C(=O)O)=C(CSc3nnnn3C)CS[C@H]12)c1csc(N)n1 [cefmenoxime]
minimum inhibitory concentrations [4]: minimum inhibitory concentrations were lower

NC[C@H]1O[C@H](O[C@H]2[C@H](O)[C@@H](O[C@H]3O[C@H](CO)[C@@H](O)[C@H](N)[C@H]3O)[C@H](N)C[C@@H]2N)[C@H](N)C[C@@H]1O [tobramycin, Tobramycin]
efficacy of nose drop ([3]; Patient A): did not seem to work
efficacy of nose drop given after oral antibiotics ([3]; Patient A, nose drop after a period on oral antibiotics): did not seem to work
tolerability of nose drop ([3]; human, in vivo): irritating
relapse after first seven day regimen ([1]; Patient A, first 7 day regimen of nebulized tobramycin): relapse was experienced within a month
time to "dumping" of green, purulent nasal discharge ([1]; Patient A): four
outcome after second seven day regimen [1, 6]: sinus infection seemed to be eliminated
time to recurrence after second seven day regimen [1, 6]: ≤ 2 months
outcome after first seven day regimen ([1]; Patient A, tobramycin 80 mg/ml, 3 ml nebulized three times daily, 7 days): sinus infection had been eliminated
benefit of addition to saline aerosol [5]: minimal benefit
